Laboratory results as given in patent US20100305098A1, “METHODS OF USE” (priority 2007, published 2010).
pIC50: −log10 of the molar value.

Key:
CCK2 = target: T1, CCK2 (Homo sapiens, UniProt P32239); assay: FLIPR functional screen; format: cell-based; settings: antagonist mode
T1 construct: Millipore

PAR4 = target: T2, PAR4 (Homo sapiens, UniProt Q96RI0); assay: FLIPR functional screen; format: cell-based; settings: antagonist mode
T2 construct: Millipore

GPR68 = target: T3, GPR68 (Homo sapiens, UniProt Q15743); assay: FLIPR functional screen; format: cell-based; settings: antagonist mode
T3 construct: Millipore

CRTH2 = target: T4, CRTH2 (Homo sapiens, UniProt Q9Y5Y4); assay: FLIPR functional screen; format: cell-based; settings: antagonist mode
T4 construct: Millipore

MC2 = target: T5, MC2 (Homo sapiens, UniProt Q01718); assay: FLIPR functional screen; format: cell-based; settings: antagonist mode
T5 construct: Millipore

AT1 = target: T6, AT1 (Homo sapiens, UniProt P30556); assay: FLIPR functional screen; format: cell-based; settings: antagonist mode
T6 construct: purchased Millipore (outsourced screen)

OPRK1 = target: T7, OPRK1 (Homo sapiens, UniProt P41145); assay: FLIPR functional screen; format: cell-based; settings: antagonist mode
T7 construct: Millipore

EP3 = target: T8, EP3 (Homo sapiens, UniProt P43115); assay: FLIPR functional screen; format: cell-based; settings: antagonist mode
T8 construct: Millipore

S1P2 = target: T9, S1P2 (Homo sapiens, UniProt O95136); assay: FLIPR functional screen; format: cell-based; settings: antagonist mode
T9 construct: Millipore

OT = target: T10, OT (Homo sapiens, UniProt P30559); assay: FLIPR functional screen; format: cell-based; settings: antagonist mode
T10 construct: Millipore

5-HT2C = target: T11, 5-HT2C (Homo sapiens, UniProt P28335); assay: FLIPR functional screen; format: cell-based; settings: antagonist mode
T11 construct: purchased Millipore (outsourced screen)

M1 = target: T12, M1 (Homo sapiens, UniProt P11229); assay: FLIPR functional screen; format: cell-based; settings: antagonist mode
T12 construct: Millipore

M3 = target: T13, M3 (Homo sapiens, UniProt P20309); assay: FLIPR functional screen; format: cell-based; settings: antagonist mode
T13 construct: Millipore

GIPR = target: T14, GIPR (Homo sapiens, UniProt P48546); assay: FLIPR functional screen; format: cell-based; settings: antagonist mode
T14 construct: Millipore

CIA mouse = assay: Suppression of arthritis development in CIA; format: in vivo
From the text: Suppression of arthritis development in CIA. DBA1/J mice were immunized with bCII/CFA at day 0 then boosted at day 21 with bCII/IFA. Arthritis development was monitored over the course of study. The arthritis score is as follows: 0=normal paw, score of 1=1-2 digit inflamed paws; score of 2=3 digits or 1-2 digit+wrist or ankle inflamed, score of 3=hand+more than 2 digits inflamed; and score of 4=multiple digits (3-4)+important wrist or ankle inflammation.
(A) Partial therapeutic evaluation of compounds. Active compound was given by oral dosing once daily at the dose indicated from day 20 after induction of antibodies to collagen II but before disease development. (B) Full therapeutic evaluation of compound. Active compound was given after disease was developed (from day 7 after the second immunization). (C) X-ray analysis of mouse paws from full therapeutic CIA study. X-ray score is the index of measurement of combination of osteopenia, bone erosion and new bone formation. (D) Representative X-ray radiographs.
Collagen induced arthritis model. Male DBA/1 mice were immunized intradermally at the base of the tail with 0.1 ml emulsion, containing 150 μg bovine type II collagen emulsified in Freund's complete adjuvant. Three weeks after 1st immunization, all mice were boosted with bovine type II collagen emulsified in Freund's incomplete adjuvant. The severity of arthritic symptoms in the paws of each mouse was graded according to Wood et al. in accordance with known techniques.
Several studies were performed in the mouse CIA model to evaluate anti-arthritic effects of ER-819924-01. Initially ER-819924-01 was studied in a partial therapeutic dosing regimen in which compounds were orally administered daily from day 20 (i.e. after induction of pathogenic anti-type II collagen antibodies, but before arthritis development). Arthritis score (measured as an inflammatory response index of inflamed paw) and body weight were monitored over two weeks. […] We also studied ER-819924-01 in a full therapeutic dosing regimen in which compounds were dosed after the induction of disease.

CX3CR1 = target: T15, CX3CR1 (Homo sapiens, UniProt P49238); assay: FLIPR functional screen; format: cell-based; settings: antagonist mode
T15 construct: Millipore

5-HT2A = target: T16, 5-HT2A (Homo sapiens, UniProt P28223); assay: FLIPR functional screen; format: cell-based; settings: antagonist mode
T16 construct: purchased Millipore (outsourced screen)

SST3 = target: T17, SST3 (Homo sapiens, UniProt P32745); assay: FLIPR functional screen; format: cell-based; settings: antagonist mode
T17 construct: Millipore

IP1 = target: T18, IP1 (Homo sapiens, UniProt P43119); assay: FLIPR functional screen; format: cell-based; settings: antagonist mode
T18 construct: Millipore

LPA3 = target: T19, LPA3 (Homo sapiens, UniProt Q9UBY5); assay: FLIPR functional screen; format: cell-based; settings: antagonist mode
T19 construct: Millipore

NK2 = target: T20, NK2 (Homo sapiens, UniProt P21452); assay: FLIPR functional screen; format: cell-based; settings: antagonist mode
T20 construct: Millipore

Prostanoid DP = target: T21, Prostanoid DP (Homo sapiens, UniProt Q13258); assay: Competitive radioligand binding (MDS Pharma)
T21 construct: purchased MDS Pharma (outsourced assay)

Mouse CD4+ T cells = assay: IL-23 induced Th17 expansion; format: cell-based; settings: 120 h, anti-TCR/anti-CD28 mAb and IL-23 (30 ng/ml), 5 days, FACS, read-out: IC50 for reduction of IL-23-induced Th17-producing cells
Procedure: IL-23 induced Th17 expansion. CD4^+ T cells were isolated from C57BL/6 mice and activated with anti-TCR (1 μg/ml plate-bound) and anti-CD28 (2 μg/ml soluble) with or without IL-23 (30 ng/ml) for 5 days. IL-17 producing cells were analyzed by IL-17 intracellular staining as described by manufacture (BD).
The effect of ER-819924-01 on IL-23-induced Th17 expansion was studied in vitro (FIG. 9). Mouse CD4^+ T cells were cultured with anti-TCR/anti-CD28 mAb and IL-23 (30 ng/ml) in the presence or absence of ER-819924-01 or anti-PGE2 Ab for 5 days. IL-17 producing T cells were analyzed by FACS of intracellular staining. ER-819924-01 reduced the number of IL-23-induced Th17-producing cells with an IC50 value of ˜10-100 nM.

CXCR3 = target: T22, CXCR3 (Homo sapiens, UniProt P49682); assay: FLIPR functional screen; format: cell-based; settings: antagonist mode
T22 construct: Millipore
T22 sequence (P49682 whole entry, species assumed): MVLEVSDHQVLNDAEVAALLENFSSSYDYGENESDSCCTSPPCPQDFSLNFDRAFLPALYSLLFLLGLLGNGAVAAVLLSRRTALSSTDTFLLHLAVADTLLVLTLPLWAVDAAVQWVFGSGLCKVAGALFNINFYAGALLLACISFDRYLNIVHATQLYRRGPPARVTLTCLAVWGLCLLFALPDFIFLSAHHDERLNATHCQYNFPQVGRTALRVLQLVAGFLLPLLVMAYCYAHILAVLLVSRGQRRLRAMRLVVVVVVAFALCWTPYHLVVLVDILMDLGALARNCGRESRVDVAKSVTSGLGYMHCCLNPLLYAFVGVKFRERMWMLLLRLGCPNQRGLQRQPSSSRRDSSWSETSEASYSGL

T21 sequence (Q13258 whole entry): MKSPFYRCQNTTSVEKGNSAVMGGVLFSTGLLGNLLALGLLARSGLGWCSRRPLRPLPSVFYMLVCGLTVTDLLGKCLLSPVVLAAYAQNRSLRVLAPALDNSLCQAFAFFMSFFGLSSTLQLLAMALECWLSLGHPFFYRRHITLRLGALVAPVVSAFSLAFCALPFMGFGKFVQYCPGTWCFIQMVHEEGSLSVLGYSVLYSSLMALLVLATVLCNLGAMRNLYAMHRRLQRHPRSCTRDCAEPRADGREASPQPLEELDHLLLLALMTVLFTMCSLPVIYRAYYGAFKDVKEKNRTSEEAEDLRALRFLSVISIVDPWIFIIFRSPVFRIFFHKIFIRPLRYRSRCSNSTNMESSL
T5 sequence (Q01718 whole entry): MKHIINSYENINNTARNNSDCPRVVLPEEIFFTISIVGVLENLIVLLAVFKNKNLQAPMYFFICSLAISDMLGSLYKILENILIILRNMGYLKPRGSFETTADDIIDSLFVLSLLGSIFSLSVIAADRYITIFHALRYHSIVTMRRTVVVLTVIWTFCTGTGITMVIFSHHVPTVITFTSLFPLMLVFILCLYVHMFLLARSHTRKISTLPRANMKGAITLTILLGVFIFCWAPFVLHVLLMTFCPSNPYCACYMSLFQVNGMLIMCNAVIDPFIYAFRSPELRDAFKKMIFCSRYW
T5 sequence (Q8TCY5 whole entry partner): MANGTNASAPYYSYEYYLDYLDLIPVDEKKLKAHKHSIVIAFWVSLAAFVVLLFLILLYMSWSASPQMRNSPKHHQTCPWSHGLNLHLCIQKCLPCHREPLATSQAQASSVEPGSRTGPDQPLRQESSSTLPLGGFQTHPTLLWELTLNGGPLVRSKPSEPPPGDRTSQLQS
T14 sequence (P48546 22-466, species assumed): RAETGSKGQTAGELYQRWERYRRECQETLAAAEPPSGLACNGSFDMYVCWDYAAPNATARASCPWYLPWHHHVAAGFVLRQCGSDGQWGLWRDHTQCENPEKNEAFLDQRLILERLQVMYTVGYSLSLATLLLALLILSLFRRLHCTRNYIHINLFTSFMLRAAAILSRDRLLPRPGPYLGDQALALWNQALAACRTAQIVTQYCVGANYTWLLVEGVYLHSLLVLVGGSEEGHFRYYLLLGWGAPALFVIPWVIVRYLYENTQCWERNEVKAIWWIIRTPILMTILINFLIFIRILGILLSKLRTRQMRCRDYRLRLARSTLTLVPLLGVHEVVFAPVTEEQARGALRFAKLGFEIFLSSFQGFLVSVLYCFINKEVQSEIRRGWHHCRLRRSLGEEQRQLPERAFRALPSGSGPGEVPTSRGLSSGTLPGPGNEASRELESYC
T1 sequence (P32239 whole entry): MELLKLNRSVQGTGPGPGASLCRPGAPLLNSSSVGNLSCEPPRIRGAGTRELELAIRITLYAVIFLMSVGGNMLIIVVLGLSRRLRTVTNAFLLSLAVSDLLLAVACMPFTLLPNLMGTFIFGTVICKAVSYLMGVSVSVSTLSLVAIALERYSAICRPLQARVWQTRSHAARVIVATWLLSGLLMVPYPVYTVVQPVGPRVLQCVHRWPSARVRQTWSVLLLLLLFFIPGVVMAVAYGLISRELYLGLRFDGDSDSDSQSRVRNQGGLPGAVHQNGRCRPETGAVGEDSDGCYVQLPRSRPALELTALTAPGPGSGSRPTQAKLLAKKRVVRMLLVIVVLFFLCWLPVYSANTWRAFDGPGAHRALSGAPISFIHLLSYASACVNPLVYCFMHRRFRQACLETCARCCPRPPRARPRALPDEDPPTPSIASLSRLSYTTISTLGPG
T8 sequence (P43115 whole entry): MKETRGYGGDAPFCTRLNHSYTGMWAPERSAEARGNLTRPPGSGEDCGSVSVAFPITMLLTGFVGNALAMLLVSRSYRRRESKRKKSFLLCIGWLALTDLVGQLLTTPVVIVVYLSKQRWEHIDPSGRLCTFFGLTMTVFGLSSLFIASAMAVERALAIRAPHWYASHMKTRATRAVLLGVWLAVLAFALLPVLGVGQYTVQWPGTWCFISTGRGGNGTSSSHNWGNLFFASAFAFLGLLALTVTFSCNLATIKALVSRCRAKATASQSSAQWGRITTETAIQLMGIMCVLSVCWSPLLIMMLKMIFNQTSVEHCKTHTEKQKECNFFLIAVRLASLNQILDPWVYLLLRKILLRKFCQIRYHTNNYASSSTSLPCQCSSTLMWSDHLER
T16 sequence (P28223 whole entry): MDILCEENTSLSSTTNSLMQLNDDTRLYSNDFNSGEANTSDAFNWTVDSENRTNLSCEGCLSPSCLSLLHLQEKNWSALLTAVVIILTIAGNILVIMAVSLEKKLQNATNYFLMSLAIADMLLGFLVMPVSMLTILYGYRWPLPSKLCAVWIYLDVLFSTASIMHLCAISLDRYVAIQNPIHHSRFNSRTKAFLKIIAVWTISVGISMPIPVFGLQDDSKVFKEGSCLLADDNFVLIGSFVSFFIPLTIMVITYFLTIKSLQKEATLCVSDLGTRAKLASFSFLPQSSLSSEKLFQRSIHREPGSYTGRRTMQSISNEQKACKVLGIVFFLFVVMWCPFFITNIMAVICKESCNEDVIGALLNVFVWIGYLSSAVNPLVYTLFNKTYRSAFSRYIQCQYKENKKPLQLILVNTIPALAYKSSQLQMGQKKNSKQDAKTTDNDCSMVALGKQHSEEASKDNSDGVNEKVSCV
T3 sequence (Q15743 whole entry, species assumed): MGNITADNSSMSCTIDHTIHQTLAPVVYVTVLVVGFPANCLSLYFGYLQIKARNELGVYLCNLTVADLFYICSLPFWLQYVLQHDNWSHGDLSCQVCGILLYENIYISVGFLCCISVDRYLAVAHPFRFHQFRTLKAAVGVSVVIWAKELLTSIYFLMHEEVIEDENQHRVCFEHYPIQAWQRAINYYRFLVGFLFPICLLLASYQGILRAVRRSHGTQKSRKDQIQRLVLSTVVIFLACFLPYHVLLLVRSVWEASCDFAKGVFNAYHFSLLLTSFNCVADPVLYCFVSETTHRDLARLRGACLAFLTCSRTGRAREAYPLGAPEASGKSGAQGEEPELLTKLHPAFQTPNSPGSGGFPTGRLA
T9 sequence (O95136 whole entry, species assumed): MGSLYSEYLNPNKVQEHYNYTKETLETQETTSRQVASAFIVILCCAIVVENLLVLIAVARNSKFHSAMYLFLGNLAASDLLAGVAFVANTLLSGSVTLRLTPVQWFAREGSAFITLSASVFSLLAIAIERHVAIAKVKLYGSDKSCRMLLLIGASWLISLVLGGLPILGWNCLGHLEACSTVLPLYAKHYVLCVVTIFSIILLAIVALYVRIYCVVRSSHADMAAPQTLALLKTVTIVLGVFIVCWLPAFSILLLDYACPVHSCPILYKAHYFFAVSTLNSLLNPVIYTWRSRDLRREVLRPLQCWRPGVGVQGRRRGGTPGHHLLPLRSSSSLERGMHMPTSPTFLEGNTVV
T17 sequence (P32745 whole entry, species assumed): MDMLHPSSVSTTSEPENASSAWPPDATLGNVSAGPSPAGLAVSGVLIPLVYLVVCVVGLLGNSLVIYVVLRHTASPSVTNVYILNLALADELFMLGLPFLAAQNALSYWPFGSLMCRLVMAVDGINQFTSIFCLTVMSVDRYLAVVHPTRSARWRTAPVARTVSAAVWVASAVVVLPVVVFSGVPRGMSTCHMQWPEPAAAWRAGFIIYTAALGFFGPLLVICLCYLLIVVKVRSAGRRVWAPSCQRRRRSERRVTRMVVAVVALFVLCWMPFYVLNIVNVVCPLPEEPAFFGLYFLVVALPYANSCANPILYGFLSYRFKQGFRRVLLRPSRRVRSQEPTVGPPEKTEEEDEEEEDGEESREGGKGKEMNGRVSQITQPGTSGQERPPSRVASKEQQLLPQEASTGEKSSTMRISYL
T2 sequence (Q96RI0 18-385): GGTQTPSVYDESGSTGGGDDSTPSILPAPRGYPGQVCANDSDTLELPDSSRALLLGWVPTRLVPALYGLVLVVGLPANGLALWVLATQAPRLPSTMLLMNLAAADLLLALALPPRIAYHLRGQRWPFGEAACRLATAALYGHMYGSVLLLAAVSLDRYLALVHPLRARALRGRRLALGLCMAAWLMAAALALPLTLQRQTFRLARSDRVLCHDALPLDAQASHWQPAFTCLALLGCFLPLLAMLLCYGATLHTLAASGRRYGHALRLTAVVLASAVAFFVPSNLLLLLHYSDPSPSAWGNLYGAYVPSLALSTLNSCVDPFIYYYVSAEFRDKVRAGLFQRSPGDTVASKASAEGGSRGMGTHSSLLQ
T20 sequence (P21452 whole entry): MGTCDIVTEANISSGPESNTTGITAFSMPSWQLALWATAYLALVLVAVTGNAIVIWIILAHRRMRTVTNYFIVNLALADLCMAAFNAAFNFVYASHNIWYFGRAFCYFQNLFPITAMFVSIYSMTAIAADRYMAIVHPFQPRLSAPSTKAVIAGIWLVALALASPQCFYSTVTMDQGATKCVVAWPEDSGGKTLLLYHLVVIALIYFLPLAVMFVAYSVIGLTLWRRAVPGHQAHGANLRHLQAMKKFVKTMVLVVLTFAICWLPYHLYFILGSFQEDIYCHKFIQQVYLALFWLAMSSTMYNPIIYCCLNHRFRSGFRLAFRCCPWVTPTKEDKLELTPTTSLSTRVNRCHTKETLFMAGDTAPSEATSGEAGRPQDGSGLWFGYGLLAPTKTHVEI

## CCN1C(=O)N2Cc3cc(OC)cc(OC)c3[C@@H](C)C=C2C12CCN(Cc1cccn1C)CC2 [ER-819924-01]
CCK2
  inhibition at 1 µM: -0.4%
PAR4
  inhibition at 1 µM: -38.6%
GPR68
  inhibition at 1 µM: 13.4%
CRTH2
  inhibition at 1 µM: 4.1%
MC2
  inhibition at 1 µM: -1%
AT1
  inhibition at 1 µM: -1.5%
OPRK1
  inhibition at 1 µM: 6.2%
EP3
  inhibition at 1 µM: 7.8%
S1P2
  inhibition at 1 µM: -0.5%
OT
  inhibition at 1 µM: 4.6%
5-HT2C
  inhibition at 1 µM: -12.5%
M1
  inhibition at 1 µM: 3.6%
M3
  inhibition at 1 µM: 8.9%
GIPR
  inhibition at 1 µM: -14.9%
CIA mouse; 30 mg/kg, separate study
  X-ray score: significantly improved X-ray score
CIA mouse; Mus musculus, 480 h, partial therapeutic dosing, oral daily from day 20
  ED50: ~10 mg/kg
CIA mouse; dosed after induction of disease, 10 mg/kg
  arthritis development under full therapeutic dosing: effectively prevented further arthritis development
CX3CR1
  inhibition at 1 µM: 1.7%
5-HT2A
  inhibition at 1 µM: 8.8%
SST3
  inhibition at 1 µM: -19.7%
IP1
  inhibition at 1 µM: 9.8%
LPA3
  inhibition at 1 µM: 9.6%
NK2
  inhibition at 1 µM: 2.1%
Prostanoid DP; CONC. 0.1 μm
  % INHIBITION: 0%
Prostanoid DP; CONC. 1 μm
  % INHIBITION: 13%
Mouse CD4+ T cells
  pIC50: 7.00 to 8.00
CXCR3
  inhibition at 1 µM: 3.2%
